# “Also recorded” adds a separate entry of the source. Where two headings read alike, the source gives them in different places.
# Key:
# [1] = conventional pharmacological features; cited from earlier work
# [2] = test system: aromatic L-amino acid decarboxylase; conditions: by aromatic L-amino acid decarboxylase; conventional pharmacological features; cited from earlier work
# physchem = assay type: physicochemical; conditions: titration method
# From the text: (§1) L-threo-DOPS, whose molecular formula is C9 H11 NO5, is white or light brown crystals or crystalline powder with no taste or odor. […] It is difficult to measure a clear melting point or decomposition point for L-threo-DOPS. […] DL-threo-DOPS, which contains 50% L-threo-DOPS, can also be used in this invention. Hereafter, L-threo-DOPS and DL-threo-DOPS are generically denoted as "threo-DOPS".
# solubility = assay type: physicochemical
# From the text: as §1
# [3] = Short term clinical testing, motor disturbance: FMS (Fugl-Meyer score); assay type: in vivo, clinical subjects; conditions: for Improvement in FMS: individual case
# Protocol: (§2) Clinical testing was conducted to evaluate the effects of the restorative neuropharmacological agent for motor and speech disturbance according to this invention.
# (§3) Clinical subjects for motor disturbance were 2 cases after cerebral aneurysm operations (subarachnoid hemorrhage), 9 cases of brain hemorrhage and 10 cases of brain infarction with chronic apoplectic paralysis, i.e. a total of 21 cases (12 males and 9 females, age 43-83 with an average 61.9±2.5 years). For these clinical subjects, the average time elapsed from the onset had occurred was 100 days.
# (§4) First, the clinical subjects received physical therapy without administration of droxidopa (L-DOPS), and then they were evaluated with FMS (Fugl-Meyer score), 10-meter walking and the Barthel index. The clinical subjects then received administration of 300 mg droxidopa (L-DOPS) per day for 2 days in addition to the physical therapy, and were evaluated with FMS. 10-meter walking and with the Barthel index.
# [4] = Short term clinical testing, motor disturbance: 10-meter walking; assay type: in vivo, clinical subjects; conditions: of the 21 cases; 300 mg per day for 2 days
# Protocol: as §2, §3, §4
# [5] = Short term clinical testing, motor disturbance: Barthel index (ADL); assay type: in vivo, clinical subjects; conditions: of the 19 cases improved in 10-meter walking; 300 mg per day for 2 days
# Protocol: as §2, §3, §4
# [6] = Short term clinical testing: central-facial palsy; assay type: in vivo, clinical subjects; conditions: all of the 12 cases with central-facial palsy; 300 mg per day for 2 days; none of 6 control cases
# [7] = Repeated 2-day administration after 1-2 weeks and halt of administration, motor functions; assay type: in vivo, clinical subjects
# From the text: The administration of droxidopa to the clinical subjects was then halted, but the level of the improvement effect on motor functions was maintained.
# [8] = Long term administration testing: Barthel index (ADL); assay type: in vivo, clinical subjects; conditions: for Improvement in ADL: individual case
# Protocol: Based on the above results, […] term administration testing was conducted.
# [9] = Clinical testing, speech disturbance (Broca aphasia after stroke): standard aphasia testing (SLAT); assay type: in vivo, clinical subjects; conditions: after 2 weeks
# Protocol: (§5) The clinical subjects for speech disturbance were 10 cases of Broca aphasia after stroke (3 males and 7 females, age 51-65 with an average of 58.6±1.6 years).
# (§6) First, without administration of droxidopa, the clinical subjects were evaluated with standard aphasia testing (SLAT). […] For 8 of the clinical subjects, 100 mg of droxidopa was administered once a day for a subsequent 2 weeks and evaluation was conducted using SLAT.
# [10] = Speech observation on administration and on stopping administration, Broca aphasia after stroke; assay type: in vivo, clinical subjects
# Protocol: as §5, §6
# Administration of droxidopa to these clinical subjects was stopped after 2 weeks. As a result, speech was totally lost in 2 cases. Subsequently, administration of droxidopa was stopped twice and, in one case, speech was totally lost every time administration was stopped and restored when administration was resumed.
# [11] = Side-effects in clinical subjects with speech disturbance; assay type: in vivo; conditions: clinical subjects with Broca aphasia
# Protocol: as §5, §6
# SD rats [12] = conditions: oral, 12 months, cited from earlier work
# beagle dogs [13] = conditions: oral 125, 500, 2,000 mg/kg/day, 12 months; cited from earlier work
# SD rats [14] = conditions: cited from earlier work
# rabbits = conditions: oral 30, 100, 300 mg/kg/day; cited from earlier work
# SD rats [15] = conditions: cited from earlier work; for perinatal and lactation period findings: oral
# [16] = test system: guinea pigs (Hartley strain, male); conditions: cited from earlier work
# cultured cells = conditions: cited from earlier work
# mice = conditions: cited from earlier work
# Mice, ICR strain = conditions: cited from earlier work
# Rats, SD strain = conditions: cited from earlier work
# beagle dogs [17] = conditions: cited from earlier work; for LD50: oral
# rhesus monkeys [18] = conditions: cited from earlier work; for LD50: oral
# SD rats [19] = conditions: 3 months, cited from earlier work
# beagle dogs [20] = conditions: oral 200, 600, 2,000 mg/kg/day, 3 months; cited from earlier work
# rhesus monkeys [21] = conditions: oral 300, 1,000, 3,000 mg/kg/day, 3 months; cited from earlier work
# SD rats [22] = conditions: oral 60, 200, 600 mg/kg/day, male and female; cited from earlier work
# microorganisms = conditions: cited from earlier work
# [23] = of the 21 cases, 300 mg per day for 2 days
compound,measurement,setting,value
N[C@H](C(=O)O)[C@H](O)c1ccc(O)c(O)c1 [threo-DOPS],passage through the blood-brain barrier,[1],passes through the blood-brain barrier into the brain
same,conversion to norepinephrine,[2],directly converted to 1-norepinephrine
"N[C@@H](C(=O)O)[C@H](O)c1ccc(O)c(O)c1 [L-threo-DOPS, (-)-(2R, 3R)-2-amino-3-hydroxy-3-(3,4-dihydroxyphenyl) propionic acid]",pKa,physchem,7.88
same,solubility in ethanol,solubility; ethanol,dissolves very little
same,solubility in ether,solubility; ether,dissolves very little
same,solubility in glacial acetic acid,solubility; glacial acetic acid,dissolves very little
same,solubility in water,solubility; water,dissolves only slightly
same,FMS increase,"[3]; 300 mg per day for 2 days plus physical therapy, higher than control cases",2.5±0.5
same,Improvement in FMS,"[3]; brain hemorrhage (BH), 300 mg per day for 2 days plus physical therapy, listed as L-DOPS",Improved; also recorded: No change
same,Improvement in FMS,"[3]; brain infarction (BI), 300 mg per day for 2 days plus physical therapy, listed as L-DOPS",Improved; also recorded: No change
same,Improvement in FMS,"[3]; subarachnoid hemorrhage (SAH), 300 mg per day for 2 days plus physical therapy",Improved
same,cases with improved balance (FMS),[3]; [23],3 cases
same,cases with improvement in lower limb motor function (FMS),[3]; [23],6 cases
same,cases with improvement in upper limb motor function (FMS),[3]; [23],10 cases
same,cases with improved FMS,"[3]; of the 21 cases, 300 mg per day for 2 days plus physical therapy",15 cases
same,cases with improvement in the 10-meter walking,[4],19 cases
same,cases with improvement in the Barthel index (ADL),[5],one
same,cases with central-facial palsy that showed improvement,[6],12 cases
same,cases with further improvement on repeated administration,[7]; 5 cases re-dosed for 2 consecutive days after 1-2 weeks,3 cases
same,level of the improvement effect on motor functions after administration was halted,[7]; after halting administration,maintained
same,dependence of results on time elapsed since onset of the illness,[8]; 200-500 mg/day for 2 weeks to 2 months,independent of the time elapsed since onset of the illness
same,Improvement in ADL,"[8]; 200 mg per day × 2W, listed as L-DOPS",Improved; also recorded: No change
same,Improvement in ADL,[8]; 200 mg per day × 4W,No change
same,Improvement in ADL,[8]; 200 mg per day × 8W,Improved
same,Improvement in ADL,[8]; 300 mg per day × 3W,Improved
same,Improvement in ADL,[8]; 300 mg per day × 6W,Improved
same,Improvement in ADL,[8]; 300 mg per day × 7W,No change
same,Improvement in ADL,[8]; 500 mg per day × 6W,Improved
same,cases with improvement in the Barthel index (ADL),"[8]; of the 10 cases, 200-500 mg/day for 2 weeks to 2 months",7 cases
same,"cases with improvement in ""hearing"" (SLAT)",[9],one
same,"cases with improvement in ""reading"" (SLAT)",[9],3 cases
same,"cases with improvement in ""repeating"" (SLAT)",[9],2 cases
same,"cases with improvement in ""speaking"" (SLAT)",[9],7 cases
same,"cases with improvement in ""writing"" (SLAT)",[9],6 cases
same,"average improvement rate, SLAT ""hearing"", imperatives",[9]; 100 mg once a day,16%
same,"average improvement rate, SLAT ""hearing"", short sentences",[9]; 100 mg once a day,33%
same,"average improvement rate, SLAT ""reading"", Chinese character words",[9]; 100 mg once a day,10%
same,"average improvement rate, SLAT ""reading"", short sentences",[9]; 100 mg once a day,20%
same,"average improvement rate, SLAT ""repeating""",[9]; 100 mg once a day,10%
same,"average improvement rate, SLAT ""speaking"", actions",[9]; 100 mg once a day,13%
same,"average improvement rate, SLAT ""speaking"", names",[9]; 100 mg once a day,27%
same,"average improvement rate, SLAT ""writing"", Japanese syllabary words",[9]; 100 mg once a day,20%
same,cases with improved SLAT results,[9]; of the 10 cases,8 cases
same,speech after 2 days of administration,"[10]; 300 mg, 3 times a day for 2 days",speech improved
same,cases in which speech was totally lost after administration was stopped,[10]; administration stopped after 2 weeks,2 cases
same,cases in which speech was totally lost every time administration was stopped and restored when resumed,[10]; administration stopped twice,one
same,side-effects,[11],No serious side-effect was observed
same,chronic toxicity findings,SD rats [12]; 30 mg/kg/day and higher,"suppression of weight increases, an increase in thymus weight, necrosis of kidney uriniferous tubuli, degeneration of kidney glomeruli, etc. were observed"
same,chronic toxicity findings,SD rats [12]; 100 mg/kg/day and higher,"drooling, myocarditis and calcification of cardiac muscles, etc. were observed"
same,chronic toxicity findings,beagle dogs [13],no abnormality was observed
same,"other influence, organ forming period","SD rats [14]; oral 60, 200, 600 mg/kg/day",No other influence was observed
same,findings in fetuses,"SD rats [14]; oral, 200 mg/kg or higher, restorable after birth",lower body weights of fetuses and an increase in the occurrence of undulating ribs were observed
same,"influence, organ forming period",rabbits,no influence on the rabbits was observed
same,"other influence, perinatal and lactation period","SD rats [15]; oral 60, 200, 600 mg/kg/day",No other influence was observed
same,perinatal and lactation period findings,SD rats [15]; 60 mg/kg or higher,suppression of neonatal development after birth was observed
same,perinatal and lactation period findings,SD rats [15]; 600 mg/kg,shortening of the pregnancy period was observed
same,Endodermoreaction,[16],negative
same,PCA reaction,[16],negative
same,intra-gel sedimentation reaction,[16],negative
same,systemic anaphylaxis reaction,[16],negative
same,"mutagenicity, chromosome abnormality testing",cultured cells,no mutagenicity was observed
same,"mutagenicity, micronucleus testing",mice,no mutagenicity was observed
same,LD50,"Mice, ICR strain; hypodermic, female",> 10000 mg/kg
same,LD50,"Mice, ICR strain; hypodermic, male",> 10000 mg/kg
same,LD50,"Mice, ICR strain; intravenous, female",> 100 mg/kg
same,LD50,"Mice, ICR strain; intravenous, male",> 100 mg/kg
same,"general symptoms, acute toxicity","Mice, ICR strain; mice","reduced voluntary motions, deep breathing and bradypnea were observed"
same,LD50,"Mice, ICR strain; oral, female",> 10000 mg/kg
same,LD50,"Mice, ICR strain; oral, male",> 10000 mg/kg
same,LD50,"Rats, SD strain; hypodermic, female",95 mg/kg
same,LD50,"Rats, SD strain; hypodermic, male",84 mg/kg
same,LD50,"Rats, SD strain; intravenous, female",19 mg/kg
same,LD50,"Rats, SD strain; intravenous, male",16 to 19 mg/kg
same,LD50,"Rats, SD strain; oral, female",> 10000 mg/kg
same,LD50,"Rats, SD strain; oral, male",> 10000 mg/kg
same,"general symptoms, acute toxicity","Rats, SD strain; rats","reduced voluntary motions, deep breathing and bradypnea were observed"
same,"general symptoms, acute toxicity",beagle dogs [17]; dogs,no abnormal symptom was observed
same,LD50,beagle dogs [17]; female,> 5000 mg/kg
same,LD50,beagle dogs [17]; male,> 5000 mg/kg
same,LD50,rhesus monkeys [18]; female,> 5000 mg/kg
same,LD50,rhesus monkeys [18]; male,> 5000 mg/kg
same,"general symptoms, acute toxicity",rhesus monkeys [18]; rhesus monkeys,no abnormal symptom was observed
same,subacute toxicity findings,"SD rats [19]; oral, 60 mg/kg/day and higher","suppressed voluntary motions, necrosis of kidney uriniferous tubuli, necrosis of cardiac muscles, etc. were observed"
same,subacute toxicity findings,"SD rats [19]; oral, 300 mg/kg/day and higher",Suppression of weight increases and such were observed
same,subacute toxicity findings,"SD rats [19]; oral, 1,500 mg/kg/day",Drooling was observed
same,subacute toxicity findings,beagle dogs [20],no abnormality was observed
same,subacute toxicity findings,rhesus monkeys [21],no abnormality was observed
same,"mating rate, conception rate, nidation number, embryo/neonate death, teratogenic actions or fetal development",SD rats [22],no influence was observed
same,"mutagenicity, back mutation testing",microorganisms,no mutagenicity was observed
